Test results published in patent US20240391965A1, “STAPLED ANTIMICROBIAL PEPTIDES (STAMPS) AND USES THEREOF” (Lytica Therapeutics, Inc., priority 2021, published 2024).
Values after ≈ are worked out from the molar mass of the structure shown. Starred links: 1 amine or outer side, 2 acyl side, 3 side chain; linkers in the order of their positions; H or OH if unused. Positions of bridges follow the written chain, without caps; N, C: chain ends. Residues, ends and D or L forms follow the SMILES beside them. mXylylene = c1cc(C[*:1])cc(C[*:2])c1; pXylylene = c1cc(C[*:2])ccc1C[*:1]; X1 = C(=CC[*:2])C[*:1]

Experiments:
[1] = system: Acinetobacter baumannii (A. baumannii); assay type: cell-based; conditions: microbroth dilution, 20-24 hours at 37° C.
Method in brief: (§1)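 Minimum inhibitory concentrations come from a CLSI-adapted broth microdilution. Cells grew in Mueller-Hinton or cation-adjusted Mueller-Hinton broth, were exposed to peptide dilutions at 5×10^5 CFU/ml, and were read by eye after 20-24 h at 37 °C.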

[2] = system: Escherichia coli (E. coli); assay type: cell-based; conditions: microbroth dilution, 20-24 hours at 37° C.
Method in brief: as §1

[3] = system: Klebsiella pneumoniae (K. pneumoniae); assay type: cell-based; conditions: microbroth dilution, 20-24 hours at 37° C.
Method in brief: as §1

[4] = system: Pseudomonas aeruginosa (P. aeruginosa); assay type: cell-based; conditions: microbroth dilution, 20-24 hours at 37° C.
Method in brief: as §1

[5] = system: Staphylococcus aureus (S. aureus); assay type: cell-based; conditions: microbroth dilution, 20-24 hours at 37° C.
Method in brief: as §1

[6] = 90 minute cytotoxicity assay (LDH release), renal toxicity; assay type: cell-based; conditions: 90 minutes of incubation, LDH release; read-out: Inhibitory Concentration at 50% Cytotoxicity (IC50) Human Renal Proximal Tubule Epithelial Cells (RPTEC)
Method in brief: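 RPTEC plated overnight, given fresh medium, then exposed to serial peptide dilutions or vehicle for 90 min at 37° C. Medium LDH measured by 10 min reagent incubation and absorbance at 490 nm.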

[7] = 48 hours cytotoxicity assay (CellTiter-Glo), liver toxicity; assay type: cell-based, human; conditions: 48 hours of incubation, CellTiter-Glo; read-out: Inhibitory Concentration at 50% Cytotoxicity (IC50) Human Liver Cells (HepG2)
Method in brief: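 HepG2 cells in EMEM with 10% FBS, allowed to attach 4 h, then exposed to serially diluted StAMPs or vehicle for 48 h at 37 °C. Viability read by CellTiter-Glo luminescence.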

Structure (SMILES)	Minimum Inhibitory Concentration (MIC) A. baumannii [1]	Minimum Inhibitory Concentration (MIC) E. coli [2]	Minimum Inhibitory Concentration (MIC) K. pneumoniae [3]	Minimum Inhibitory Concentration (MIC) P. aeruginosa [4]	Minimum Inhibitory Concentration (MIC) S. aureus [5]	IC50 [6]	IC50 [7]
CC[C@H](C)[C@H](NC(=O)CN)C(=O)N[C@@H](Cc1ccccc1)C(=O)N[C@@H](CO)C(=O)N[C@@H](CCCCN)C(=O)N[C@@H](CC(C)C)C(=O)N[C@@H](C)C(=O)NCC(=O)N[C@@H](CCCCN)C(=O)N[C@@H](CCCCN)C(=O)N[C@H](C(=O)N[C@H]1CSCc2cccc(c2)CSC[C@@H](C(=O)N[C@@H](CO)C(=O)NCC(=O)N[C@@H](CC(C)C)C(=O)N[C@@H](CCCCN)C(=O)NCC(N)=O)NC(=O)[C@H](CC(C)C)NC(=O)[C@H](CC(C)C)NC(=O)[C@H](CC(N)=O)NC1=O)[C@@H](C)CC [compound 20] (H-GIFSKLAGKKICNLLCSGLKG-NH2; linker 12-16 via mXylylene)	8 µg/mL	8 µg/mL	16 µg/mL	16 µg/mL	64 µg/mL	25 µg/mL (≈ 11.1 µM)	40 µg/mL (≈ 17.8 µM)
CC[C@H](C)[C@H](NC(=O)CN)C(=O)N[C@@H](Cc1ccccc1)C(=O)N[C@@H](CO)C(=O)N[C@@H](CCCCN)C(=O)N[C@@H](CC(C)C)C(=O)N[C@@H](C)C(=O)NCC(=O)N[C@@H](CCCCN)C(=O)N[C@@H](CCCCN)C(=O)N[C@H](C(=O)N[C@H]1CSCc2ccc(cc2)CSC[C@@H](C(=O)N[C@@H](CO)C(=O)NCC(=O)N[C@@H](CC(C)C)C(=O)N[C@@H](CCCCN)C(=O)NCC(N)=O)NC(=O)[C@H](CC(C)C)NC(=O)[C@H](CC(C)C)NC(=O)[C@H](CC(N)=O)NC1=O)[C@@H](C)CC [compound 21] (H-GIFSKLAGKKICNLLCSGLKG-NH2; linker 12-16 via pXylylene)	16 µg/mL	8 µg/mL	32 µg/mL	32 µg/mL	>64 µg/mL	96 µg/mL (≈ 42.6 µM)	200 µg/mL (≈ 88.8 µM)
CC[C@H](C)[C@H](NC(=O)CN)C(=O)N[C@@H](Cc1ccccc1)C(=O)N[C@@H](CO)C(=O)N[C@@H](CCCCN)C(=O)N[C@@H](CC(C)C)C(=O)N[C@@H](C)C(=O)NCC(=O)N[C@@H](CCCCN)C(=O)N[C@@H](CCCCN)C(=O)N[C@H](C(=O)N[C@H]1CSCC=CCSC[C@@H](C(=O)N[C@@H](CO)C(=O)NCC(=O)N[C@@H](CC(C)C)C(=O)N[C@@H](CCCCN)C(=O)NCC(N)=O)NC(=O)[C@H](CC(C)C)NC(=O)[C@H](CC(C)C)NC(=O)[C@H](CC(N)=O)NC1=O)[C@@H](C)CC [compound 22] (H-GIFSKLAGKKICNLLCSGLKG-NH2; linker 12-16 via X1)	64 µg/mL	32 µg/mL	>64 µg/mL	64 µg/mL	>64 µg/mL	> 200 µg/mL	> 200 µg/mL
CC[C@H](C)[C@H](NC(=O)CN)C(=O)N[C@@H](Cc1ccccc1)C(=O)N[C@@H](CO)C(=O)N[C@@H](CCCCN)C(=O)N[C@@H](CC(C)C)C(=O)N[C@@H](C)C(=O)NCC(=O)N[C@@H](CCCCN)C(=O)N[C@@H](CCCCN)C(=O)N[C@H](C(=O)N[C@@H](CCCCN)C(=O)N[C@@H](CC(N)=O)C(=O)N[C@@H](CC(C)C)C(=O)N[C@H]1CSCc2cccc(c2)CSC[C@@H](C(=O)N[C@@H](CCCCN)C(=O)NCC(N)=O)NC(=O)CNC(=O)[C@H](CO)NC(=O)[C@H]([C@@H](C)CC)NC1=O)[C@@H](C)CC [compound 29] (H-GIFSKLAGKKIKNLCISGCKG-NH2; linker 15-19 via mXylylene)	16 µg/mL	64 µg/mL	>64 µg/mL	64 µg/mL	>64 µg/mL	> 200 µg/mL	~200 µg/mL (≈ 88.2 µM)
CC[C@H](C)[C@H](NC(=O)CN)C(=O)N[C@@H](Cc1ccccc1)C(=O)N[C@@H](CO)C(=O)N[C@@H](CCCCN)C(=O)N[C@@H](CC(C)C)C(=O)N[C@@H](C)C(=O)NCC(=O)N[C@@H](CCCCN)C(=O)N[C@@H](CCCCN)C(=O)N[C@H](C(=O)N[C@@H](CCCCN)C(=O)N[C@@H](CC(N)=O)C(=O)N[C@@H](CC(C)C)C(=O)N[C@H]1CSCc2ccc(cc2)CSC[C@@H](C(=O)N[C@@H](CCCCN)C(=O)NCC(N)=O)NC(=O)CNC(=O)[C@H](CO)NC(=O)[C@H]([C@@H](C)CC)NC1=O)[C@@H](C)CC [compound 30] (H-GIFSKLAGKKIKNLCISGCKG-NH2; linker 15-19 via pXylylene)	16 µg/mL	64 µg/mL	>64 µg/mL	64 µg/mL	>64 µg/mL	> 200 µg/mL	> 200 µg/mL
CC[C@H](C)[C@H](NC(=O)CN)C(=O)N[C@@H](Cc1ccccc1)C(=O)N[C@@H](CO)C(=O)N[C@@H](CCCCN)C(=O)N[C@@H](CC(C)C)C(=O)N[C@@H](C)C(=O)NCC(=O)N[C@@H](CCCCN)C(=O)N[C@@H](CCCCN)C(=O)N[C@H](C(=O)N[C@@H](CCCCN)C(=O)N[C@@H](CC(N)=O)C(=O)N[C@@H](CC(C)C)C(=O)N[C@H]1CSCC=CCSC[C@@H](C(=O)N[C@@H](CCCCN)C(=O)NCC(N)=O)NC(=O)CNC(=O)[C@H](CO)NC(=O)[C@H]([C@@H](C)CC)NC1=O)[C@@H](C)CC [compound 31] (H-GIFSKLAGKKIKNLCISGCKG-NH2; linker 15-19 via X1)	>64 µg/mL	>64 µg/mL	>64 µg/mL	>64 µg/mL	>64 µg/mL	> 200 µg/mL	> 200 µg/mL
CC[C@H](C)[C@H](NC(=O)CN)C(=O)N[C@@H](Cc1ccccc1)C(=O)N[C@@H](CO)C(=O)N[C@@H](CCCCN)C(=O)N[C@@H](CC(C)C)C(=O)N[C@@H](C)C(=O)NCC(=O)N[C@@H](CCCCN)C(=O)N[C@@H](CCCCN)C(=O)N[C@H](C(=O)N[C@@H](CCCCN)C(=O)N[C@@H](CC(N)=O)C(=O)N[C@@H](CC(C)C)C(=O)N[C@@H](CC(C)C)C(=O)N[C@H]1CSCc2cccc(c2)CSC[C@@H](C(=O)NCC(N)=O)NC(=O)[C@H](CC(C)C)NC(=O)CNC(=O)[C@H](CO)NC1=O)[C@@H](C)CC [compound 32] (H-GIFSKLAGKKIKNLLCSGLCG-NH2; linker 16-20 via mXylylene)	2 µg/mL	2 µg/mL	8 µg/mL	16 µg/mL	>64 µg/mL	30 µg/mL (≈ 13.3 µM)	41 µg/mL (≈ 18.2 µM)
